Source: US20130331389A1, “Methods and Compositions for Cardiomyocyte Replenishment by Endogenous and Progenitor Stem Cells” (NATIONAL CHENG KUNG UNIVERSITY, priority 2012, published 2013)

Columns and labels:
Assay type in all cases: in vivo, mouse
[1] = system: M1 (CD11b+/CD11c+) and M2 (CD11b+/CD206+) macrophages; assay: Immunostaining of M1 and M2 macrophages in heart sections day 3 post-infarction; settings: young mice
Method: (§1) To induce Cre recombination to achieve GFP labeling of cardiomyocytes, tamoxifen (Sigma) was dissolved in sunflower oil (Sigma) at a concentration of 5 mg/ml. The tamoxifen solution was injected intraperitoneally into M/Z mice daily at a dosage of 40 μg per 1 g body weight for 14 days, and the same dosage was injected twice daily for short-term labeling using methods known in the art (Laugwitz, K.-L. et al. Nature 433, 647-653 (2005)). All experimental conditions were optimized prior to the PGE2, indomethacin and TGF-β Type I Receptor Kinase Inhibitor II (ALK5 Inhibitor II, ALK5i, Merck) treatments. The mice treated with PGE2 or PGI2 (Vegiopoulos, A. et al. Science 328, 1158-1161 (2010)) (both from Sigma) were injected intraperitoneally with 3.33 ng of drug per 1 g of body weight dissolved in absolute ethanol twice daily. For the indomethacin treatment, mice were fed with water containing indomethacin (Sigma, 15 μg/ml) for different periods of time. […]
The harvested hearts were fixed with 4% paraformaldehyde and embedded in paraffin. […] A DAB substrate kit (Vector Laboratories) was used for immunohistochemistry and appropriate secondary antibodies (Invitrogen or Abcam) were used for visualization under a fluorescence microscope. […] The appropriate secondary antibodies (Invitrogen or Jackson ImmunoResearch) were used for visualization under a fluorescence microscope. […]

[2] = system: TGF-β1; assay: Quantitative RT-PCR of TGF-β1 in infarcted region of MI heart; settings: day 3 and day 7 after injury
Method: as §1, with “daily.” for “daily. For the indomethacin treatment, mice were fed with water containing indomethacin (Sigma, 15 μg/ml) for different periods of time.”
(§2) The total RNA isolated from the ischemic region or remote area of MI hearts was reverse transcribed using the SuperScript III (Invitrogen) system according to the manufacturer's protocol. For quantitative PCR, the SYBR Green reagent (Maestrogen) was used according to the manufacturer's protocol. The analysis of relative gene expression was performed using the 2̂[−delta delta Ct] method and sequence-specific primers designed for semi-quantitative PCR and real-time RT-PCR (FIG. 11).

[3] = system: MerCreMer/ZEG (M/Z) mice; assay: Cardiomyocyte replenishment after myocardial infarction, GFP+ / β-Gal+ cardiomyocyte counting; settings: for stem cell-mediated cardiomyocyte reconstitution: aged mice (>18 months), 14 days post-MI
Method: All experiments involving animals were conducted in accordance with the Guide for the Use and Care of Laboratory Animals, and all animal protocols have been approved by National Cheng Kung University. Sca-1^− GFP, B6.Cg-Tg(Ly6a-GFP)G5Dzk/J and EP2^−/−, B6.129-Ptger2^tm/Brey/J mice were obtained from Jackson Laboratory. The double transgenic MerCreMer/ZEG (M/Z) mice were generated by crossbreeding MerCreMer and Z/EG mice (Jackson Laboratory), which have C57BL/6SV129 and C57BL/6J (N7) background strains, respectively. The MerCreMer mice contain a tamoxifen-inducible Cre recombinase fusion protein driven by the cardiomyocyte-specific α-MHC promoter. In Z/EG mice, GFP replace constitutive β-Gal expression after the removal of a LoxP-flanked stop sequence by Cre.
M/Z mice were subjected to experimental myocardial infarction (MI) one month after the last tamoxifen injection. MI was generated by ligating the left anterior descending coronary artery at 2-3 mm distal to the left atrial appendage. For cell transplantation experiments, intramyocardial injections were performed immediately after coronary ligation. A total of 6×10^5 cardiac Sca-1^+ cells were injected per mouse in two divided injections (5 μl/injection). For BrdU labeling, the mice were subcutaneously implanted with osmotic minipump (Alzet) at the time of surgery and 40 μg/μl of BrdU (Sigma) was administrated. For immunohistological studies, mice were sacrificed and the hearts were harvested at different time points following experimental MI surgery. Cardiac performances were assessed by echocardiography at 28 and 56 days after operation using Vevo 770 (Visualsonics, Toronto, Canada).
(§3) To induce Cre recombination to achieve GFP labeling of cardiomyocytes, tamoxifen (Sigma) was dissolved in sunflower oil (Sigma) at a concentration of 5 mg/ml. The tamoxifen solution was injected intraperitoneally into M/Z mice daily at a dosage of 40 μg per 1 g body weight for 14 days, and the same dosage was injected twice daily for short-term labeling using methods known in the art (Laugwitz, K.-L. et al. Nature 433, 647-653 (2005)). All experimental conditions were optimized prior to the PGE2, indomethacin and TGF-β Type I Receptor Kinase Inhibitor II (ALK5 Inhibitor II, ALK5i, Merck) treatments. The mice treated with PGE2 or PGI2 (Vegiopoulos, A. et al. Science 328, 1158-1161 (2010)) (both from Sigma) were injected intraperitoneally with 3.33 ng of drug per 1 g of body weight dissolved in absolute ethanol twice daily. For the indomethacin treatment, mice were fed with water containing indomethacin (Sigma, 15 μg/ml) for different periods of time. The indomethacin-containing water was changed every 3 days. The mice subjected to the celecoxib (Lyons, T. R. et al. Nat. Med. 17, 1109-1115 (2011)) (Sigma) treatment were injected intraperitoneally with 5 μg of drug per 1 g of body weight daily. For ALK5i treatment, aged mice were injected intraperitoneally once per day with 1 μg of drug per 1 g of body weight one day before surgery and continuously until day 10 post-MI. Celecoxib and ALK5i were dissolved in ethanol and DMSO, respectively.
All of the cellular quantifications were performed double-blindly to minimize personal bias. […] For the cardiomyocyte cell counts, 3 sections from each heart, and 2 infarction border zones and 1 remote area from each section were analyzed at a magnification of 200× by light microscopy. Cells with visible sarcomere structures were analyzed, and the average number of cells counted was 171.8±5.8 per photo image. For the small cardiac cell counts, more than five sections from each heart were analyzed at a magnification of 400× using fluorescence microscopy. The average number of cells counted was 17.01±0.99 per photo image, and more than one hundred and fifty cells were analyzed from each heart. As quantification result is the averaged values calculated from the pictures taken from six border zone sections per heart, personal variation has been minimized. […]

[4] = system: B220; assay: Quantitative RT-PCR of B cell marker B220 in infarct region; settings: both young and old mice; day 3 post-infarction
Method: as §1, with “daily.” for “daily. For the indomethacin treatment, mice were fed with water containing indomethacin (Sigma, 15 μg/ml) for different periods of time.”
as §2

[5] = system: Sca-1; assay: Quantitative RT-PCR of Sca-1 in infarct zone of MI heart; settings: day 3 post-MI
Method: as §3, §2

## CCCCC[C@H](O)/C=C/C1C(O)CC(=O)C1C/C=C\CCCC(=O)O (stereo partly drawn) [PGE2, (5Z,11α,13E,15S)-7-[3-hydroxy-2-(3-hydroxyoct-1-enyl)-5-oxo-cyclopentyl]hept-5-enoic acid]
[1]
  number of M1 macrophage: reduced
  number of M2 macrophage: increased
[2]; aged mice
  expression of TGF-β1: decline
[2]; young mice
  expression of TGF-β1: not significantly altered
[3]; border zone, P<0.01 versus sham or MI
  stem cell-mediated cardiomyocyte reconstitution: successfully recover
[3]; remote area
  stem cell-mediated cardiomyocyte reconstitution: not in the remote area
[3]; border zone, PGE2 plus indomethacin, P<0.01
  rescue of cardiomyocyte replenishment compared to indomethacin treatment alone: about 10%
[3]; border zone, young mice, 3.33 ng per 1 g i.p. twice daily for 14 days, P<0.01
  increase of cardiomyocyte replenishment compared to the vehicle control: about 9%
[4]
  B220 level: reduced
[5]; aged animals
  Sca-1 expression: restored Sca-1 expression to levels similar to those in young mice
[5]; young mice
  Sca-1 expression: further increased
